Test results as given in ChEMBL document CHEMBL4007384, “Synthesis and optimization of furano[3,2-d]pyrimidines as selective spleen tyrosine kinase (Syk) inhibitors” (Bioorg Med Chem Lett, 2016).

Legend:
[1] = target: Serine/threonine-protein kinase pim-1 (Homo sapiens, UniProt P11309); assay: Inhibition of PIM1 (unknown origin) after 60 mins by TR-FRET assay
[2] = target: T1, Serine/threonine-protein kinase D3 (Homo sapiens, UniProt O94806); assay: Inhibition of Prkcn (unknown origin) after 60 mins by TR-FRET assay
T1 sequence (O94806 whole entry): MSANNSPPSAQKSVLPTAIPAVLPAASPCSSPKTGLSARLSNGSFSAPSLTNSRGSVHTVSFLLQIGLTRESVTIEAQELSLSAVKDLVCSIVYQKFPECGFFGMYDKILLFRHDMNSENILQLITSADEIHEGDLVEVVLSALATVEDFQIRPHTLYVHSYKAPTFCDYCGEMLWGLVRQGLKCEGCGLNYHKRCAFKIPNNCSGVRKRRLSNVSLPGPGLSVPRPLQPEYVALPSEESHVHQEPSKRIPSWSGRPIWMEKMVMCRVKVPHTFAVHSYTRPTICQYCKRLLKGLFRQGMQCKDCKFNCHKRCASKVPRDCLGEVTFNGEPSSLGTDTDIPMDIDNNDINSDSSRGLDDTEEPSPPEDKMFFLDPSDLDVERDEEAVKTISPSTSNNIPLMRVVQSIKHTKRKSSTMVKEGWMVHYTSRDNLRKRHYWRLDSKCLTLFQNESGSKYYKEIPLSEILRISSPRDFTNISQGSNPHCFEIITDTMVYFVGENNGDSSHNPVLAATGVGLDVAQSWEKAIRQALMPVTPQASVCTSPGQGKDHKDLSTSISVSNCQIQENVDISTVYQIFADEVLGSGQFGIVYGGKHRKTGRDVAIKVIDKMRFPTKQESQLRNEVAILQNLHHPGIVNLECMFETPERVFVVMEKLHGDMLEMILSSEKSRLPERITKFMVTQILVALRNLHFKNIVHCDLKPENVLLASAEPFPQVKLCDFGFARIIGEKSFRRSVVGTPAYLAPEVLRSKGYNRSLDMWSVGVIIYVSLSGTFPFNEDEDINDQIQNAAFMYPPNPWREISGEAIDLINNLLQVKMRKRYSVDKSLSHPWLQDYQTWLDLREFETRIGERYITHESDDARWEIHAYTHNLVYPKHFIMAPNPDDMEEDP

[3] = target: Serine/threonine-protein kinase PAK 4 (Homo sapiens, UniProt O96013); assay: Inhibition of PAK4 kinase domain (unknown origin) after 60 mins by TR-FRET assay
Sequence of Serine/threonine-protein kinase PAK 4 (O96013 whole entry, the tested form may be a part): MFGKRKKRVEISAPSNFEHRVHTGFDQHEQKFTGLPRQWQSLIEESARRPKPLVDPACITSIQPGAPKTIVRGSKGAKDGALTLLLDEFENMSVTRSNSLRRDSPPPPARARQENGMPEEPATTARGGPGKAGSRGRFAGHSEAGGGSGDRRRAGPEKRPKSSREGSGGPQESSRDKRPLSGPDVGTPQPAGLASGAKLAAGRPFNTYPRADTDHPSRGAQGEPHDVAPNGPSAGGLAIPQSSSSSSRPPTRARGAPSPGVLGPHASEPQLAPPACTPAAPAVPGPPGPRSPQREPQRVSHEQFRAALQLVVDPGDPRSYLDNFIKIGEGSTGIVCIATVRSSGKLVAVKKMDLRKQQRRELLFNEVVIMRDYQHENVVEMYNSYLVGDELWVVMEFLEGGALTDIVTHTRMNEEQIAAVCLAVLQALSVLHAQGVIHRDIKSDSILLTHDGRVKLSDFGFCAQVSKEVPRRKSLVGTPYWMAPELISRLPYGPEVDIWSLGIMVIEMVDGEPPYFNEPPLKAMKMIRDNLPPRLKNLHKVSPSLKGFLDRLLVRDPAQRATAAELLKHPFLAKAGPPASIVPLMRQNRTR

[4] = target: Cyclin-dependent kinase 8 (Homo sapiens, UniProt P49336); assay: Inhibition of CDK8 (unknown origin) after 60 mins by TR-FRET assay
Sequence of Cyclin-dependent kinase 8 (P49336 whole entry): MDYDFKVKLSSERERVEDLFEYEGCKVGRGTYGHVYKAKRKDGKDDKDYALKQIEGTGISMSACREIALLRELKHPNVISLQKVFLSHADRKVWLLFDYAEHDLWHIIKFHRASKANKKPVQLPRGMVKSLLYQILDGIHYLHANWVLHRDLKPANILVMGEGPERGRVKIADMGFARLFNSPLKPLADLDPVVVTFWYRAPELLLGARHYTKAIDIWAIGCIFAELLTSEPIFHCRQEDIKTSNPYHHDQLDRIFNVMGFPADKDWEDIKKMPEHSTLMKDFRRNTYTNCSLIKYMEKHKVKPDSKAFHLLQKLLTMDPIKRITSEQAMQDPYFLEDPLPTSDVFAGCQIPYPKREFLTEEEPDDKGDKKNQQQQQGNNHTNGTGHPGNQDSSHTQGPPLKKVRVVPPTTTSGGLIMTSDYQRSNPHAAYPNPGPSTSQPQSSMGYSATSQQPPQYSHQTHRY

[5] = target: T2, Tyrosine-protein kinase receptor TYRO3 (Homo sapiens, UniProt Q06418); assay: Inhibition of TYRO3 (unknown origin) after 60 mins by TR-FRET assay
T2 sequence (Q06418 whole entry): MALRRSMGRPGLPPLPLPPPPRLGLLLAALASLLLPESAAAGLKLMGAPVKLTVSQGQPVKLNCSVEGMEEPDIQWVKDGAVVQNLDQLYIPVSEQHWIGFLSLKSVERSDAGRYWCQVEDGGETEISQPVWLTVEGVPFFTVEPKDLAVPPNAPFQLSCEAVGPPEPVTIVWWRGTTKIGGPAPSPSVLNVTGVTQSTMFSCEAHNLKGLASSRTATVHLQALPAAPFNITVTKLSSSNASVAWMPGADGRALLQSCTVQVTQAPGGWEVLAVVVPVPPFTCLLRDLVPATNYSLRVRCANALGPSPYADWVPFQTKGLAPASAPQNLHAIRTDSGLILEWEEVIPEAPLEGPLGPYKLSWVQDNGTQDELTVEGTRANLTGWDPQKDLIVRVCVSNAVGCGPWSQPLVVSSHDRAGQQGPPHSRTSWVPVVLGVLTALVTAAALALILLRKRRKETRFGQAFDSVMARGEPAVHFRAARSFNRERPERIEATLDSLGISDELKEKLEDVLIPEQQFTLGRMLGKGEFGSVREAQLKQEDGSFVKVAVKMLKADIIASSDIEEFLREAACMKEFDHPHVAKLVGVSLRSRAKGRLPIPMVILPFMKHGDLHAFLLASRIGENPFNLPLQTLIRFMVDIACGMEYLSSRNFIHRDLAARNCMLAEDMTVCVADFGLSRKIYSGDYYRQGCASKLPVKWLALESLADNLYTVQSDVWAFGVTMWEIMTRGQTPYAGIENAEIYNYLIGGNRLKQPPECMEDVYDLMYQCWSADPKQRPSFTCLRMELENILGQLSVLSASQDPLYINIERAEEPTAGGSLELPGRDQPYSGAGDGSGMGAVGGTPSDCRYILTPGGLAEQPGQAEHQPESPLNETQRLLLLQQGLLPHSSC

[6] = target: Glycogen synthase kinase-3 alpha (Homo sapiens, UniProt P49840); assay: Inhibition of GSK3A (unknown origin) after 60 mins by TR-FRET assay
Sequence of Glycogen synthase kinase-3 alpha (P49840 whole entry): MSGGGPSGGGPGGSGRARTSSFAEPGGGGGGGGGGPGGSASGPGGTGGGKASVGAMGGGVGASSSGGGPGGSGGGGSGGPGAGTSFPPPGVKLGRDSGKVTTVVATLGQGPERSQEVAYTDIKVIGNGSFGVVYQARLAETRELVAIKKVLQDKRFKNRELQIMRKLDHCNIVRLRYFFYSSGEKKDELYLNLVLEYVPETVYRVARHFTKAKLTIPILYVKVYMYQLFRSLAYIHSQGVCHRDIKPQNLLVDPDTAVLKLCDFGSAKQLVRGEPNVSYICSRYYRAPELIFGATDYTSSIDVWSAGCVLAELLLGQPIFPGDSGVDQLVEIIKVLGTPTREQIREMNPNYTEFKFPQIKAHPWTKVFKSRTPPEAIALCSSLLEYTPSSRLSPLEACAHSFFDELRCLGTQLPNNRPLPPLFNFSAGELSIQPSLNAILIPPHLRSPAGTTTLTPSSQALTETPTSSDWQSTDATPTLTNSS

CYP3A4 [7] = target: T3, CYP3A4 (Homo sapiens, UniProt P08684); assay: Inhibition of CYP3A4 in human liver microsomes assessed as residual activity at 50 uM measured immediately relative to control; assay type: ADME; conditions: read-out: Activity
T3 sequence (P08684 whole entry): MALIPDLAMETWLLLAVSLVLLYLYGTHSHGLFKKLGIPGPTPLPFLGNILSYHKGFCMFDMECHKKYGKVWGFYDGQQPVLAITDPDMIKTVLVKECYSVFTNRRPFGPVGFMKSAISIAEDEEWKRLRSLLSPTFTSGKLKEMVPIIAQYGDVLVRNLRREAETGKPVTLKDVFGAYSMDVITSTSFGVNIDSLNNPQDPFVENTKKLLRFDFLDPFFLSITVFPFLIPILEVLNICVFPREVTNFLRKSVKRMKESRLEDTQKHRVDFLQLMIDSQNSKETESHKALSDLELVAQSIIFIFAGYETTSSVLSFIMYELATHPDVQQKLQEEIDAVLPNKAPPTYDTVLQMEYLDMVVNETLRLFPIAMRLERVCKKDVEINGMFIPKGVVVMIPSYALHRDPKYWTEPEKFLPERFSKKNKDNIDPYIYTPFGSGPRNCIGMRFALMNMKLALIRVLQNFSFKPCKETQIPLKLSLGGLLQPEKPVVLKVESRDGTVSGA

[8] = target: Mitogen-activated protein kinase 9 (Homo sapiens, UniProt P45984); assay: Inhibition of JNK2 (unknown origin) after 60 mins by TR-FRET assay
Sequence of Mitogen-activated protein kinase 9 (P45984 whole entry): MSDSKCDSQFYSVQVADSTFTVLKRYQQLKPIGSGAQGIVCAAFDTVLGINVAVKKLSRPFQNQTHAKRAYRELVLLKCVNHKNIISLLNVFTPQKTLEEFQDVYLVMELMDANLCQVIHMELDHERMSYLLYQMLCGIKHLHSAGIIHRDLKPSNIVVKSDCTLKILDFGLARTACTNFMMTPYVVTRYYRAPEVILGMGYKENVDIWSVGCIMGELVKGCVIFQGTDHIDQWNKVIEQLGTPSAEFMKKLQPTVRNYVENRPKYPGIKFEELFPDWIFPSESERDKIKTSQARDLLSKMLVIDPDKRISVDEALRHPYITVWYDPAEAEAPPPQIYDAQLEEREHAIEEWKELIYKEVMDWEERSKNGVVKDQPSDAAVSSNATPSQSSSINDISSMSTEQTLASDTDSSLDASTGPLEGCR

MAP kinase p38 = MAP kinase p38 (Homo sapiens, UniProt O15264+Q15759+Q16539+P53778); assay: Inhibition of p38 (unknown origin) after 60 mins by TR-FRET assay
[9] = target: Vascular endothelial growth factor receptor 1 (Homo sapiens, UniProt P17948); assay: Inhibition of Flt1(unknown origin) after 60 mins by TR-FRET assay
Sequence of Vascular endothelial growth factor receptor 1 (P17948 whole entry): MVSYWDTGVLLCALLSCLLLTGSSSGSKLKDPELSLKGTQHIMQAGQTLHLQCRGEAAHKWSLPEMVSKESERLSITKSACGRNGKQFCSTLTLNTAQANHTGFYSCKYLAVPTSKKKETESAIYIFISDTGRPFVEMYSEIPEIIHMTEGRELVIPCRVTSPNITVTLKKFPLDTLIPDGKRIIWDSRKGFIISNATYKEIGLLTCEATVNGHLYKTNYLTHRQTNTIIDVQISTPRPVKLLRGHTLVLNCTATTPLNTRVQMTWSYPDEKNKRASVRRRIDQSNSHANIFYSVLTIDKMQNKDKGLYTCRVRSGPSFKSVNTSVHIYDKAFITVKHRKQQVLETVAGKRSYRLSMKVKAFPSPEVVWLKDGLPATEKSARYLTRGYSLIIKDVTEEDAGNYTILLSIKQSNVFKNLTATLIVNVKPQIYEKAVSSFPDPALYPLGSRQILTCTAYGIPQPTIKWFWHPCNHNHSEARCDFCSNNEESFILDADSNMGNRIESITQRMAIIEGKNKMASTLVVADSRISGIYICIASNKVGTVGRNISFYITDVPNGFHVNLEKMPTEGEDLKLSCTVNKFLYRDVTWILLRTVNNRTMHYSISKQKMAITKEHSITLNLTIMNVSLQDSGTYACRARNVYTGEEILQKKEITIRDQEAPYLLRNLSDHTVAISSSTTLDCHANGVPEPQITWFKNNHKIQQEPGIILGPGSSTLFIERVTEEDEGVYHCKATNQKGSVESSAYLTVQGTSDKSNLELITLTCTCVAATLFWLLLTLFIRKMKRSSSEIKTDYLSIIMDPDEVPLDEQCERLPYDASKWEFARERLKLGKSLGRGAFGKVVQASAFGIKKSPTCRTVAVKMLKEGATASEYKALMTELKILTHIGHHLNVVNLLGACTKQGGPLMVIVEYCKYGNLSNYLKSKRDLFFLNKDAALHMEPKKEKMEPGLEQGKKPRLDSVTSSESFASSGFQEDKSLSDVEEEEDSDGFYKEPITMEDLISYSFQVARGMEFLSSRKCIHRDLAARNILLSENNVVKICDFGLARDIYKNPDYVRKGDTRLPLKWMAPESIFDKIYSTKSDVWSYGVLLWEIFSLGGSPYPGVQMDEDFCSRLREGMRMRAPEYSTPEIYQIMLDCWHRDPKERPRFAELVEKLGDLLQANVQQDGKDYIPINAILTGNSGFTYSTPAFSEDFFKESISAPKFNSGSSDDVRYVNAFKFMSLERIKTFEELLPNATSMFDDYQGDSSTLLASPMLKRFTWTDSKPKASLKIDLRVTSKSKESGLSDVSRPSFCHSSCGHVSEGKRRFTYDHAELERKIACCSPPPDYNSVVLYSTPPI

Aurora kinase B = Aurora kinase B (Homo sapiens, UniProt Q96GD4); assay: Inhibition of AURKB (unknown origin) after 60 mins by TR-FRET assay
Sequence of Aurora kinase B (Q96GD4 whole entry): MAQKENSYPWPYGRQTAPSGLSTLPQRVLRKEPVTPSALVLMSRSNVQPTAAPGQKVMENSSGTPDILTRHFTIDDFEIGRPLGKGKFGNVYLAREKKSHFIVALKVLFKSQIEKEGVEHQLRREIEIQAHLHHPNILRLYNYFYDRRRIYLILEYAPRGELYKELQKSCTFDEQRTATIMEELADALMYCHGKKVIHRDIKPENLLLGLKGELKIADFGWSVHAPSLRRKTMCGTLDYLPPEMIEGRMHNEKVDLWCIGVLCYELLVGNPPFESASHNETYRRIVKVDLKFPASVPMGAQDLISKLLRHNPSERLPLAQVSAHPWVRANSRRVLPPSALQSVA

[10] = target: Glycogen synthase kinase-3 beta (Homo sapiens, UniProt P49841); assay: Inhibition of GSK3B (unknown origin) after 60 mins by TR-FRET assay
Sequence of Glycogen synthase kinase-3 beta (P49841 whole entry): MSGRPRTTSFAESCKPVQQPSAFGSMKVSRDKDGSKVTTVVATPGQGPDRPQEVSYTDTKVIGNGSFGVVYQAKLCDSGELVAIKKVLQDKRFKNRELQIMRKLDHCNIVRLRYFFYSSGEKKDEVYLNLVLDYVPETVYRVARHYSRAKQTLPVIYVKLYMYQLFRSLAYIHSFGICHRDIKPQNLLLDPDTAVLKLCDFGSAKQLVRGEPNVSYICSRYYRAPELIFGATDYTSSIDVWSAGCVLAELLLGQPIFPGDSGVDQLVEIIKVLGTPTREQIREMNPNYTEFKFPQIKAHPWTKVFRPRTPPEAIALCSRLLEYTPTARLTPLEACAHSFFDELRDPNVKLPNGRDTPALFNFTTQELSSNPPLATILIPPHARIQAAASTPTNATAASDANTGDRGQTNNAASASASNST

[11] = target: Hepatocyte growth factor receptor (Homo sapiens, UniProt P08581); assay: Inhibition of c-MET (unknown origin) after 60 mins by TR-FRET assay
CYP3A4 [12] = target: T3, CYP3A4; assay: Inhibition of CYP3A4 in human liver microsomes assessed as residual activity at 50 uM measured after 30 mins relative to control; assay type: ADME; conditions: read-out: Activity
CYP3A4 [13] = target: T3, CYP3A4; assay: Inhibition of CYP3A4 in human liver microsomes assessed as residual activity at 10 uM measured immediately relative to control; assay type: ADME; conditions: read-out: Activity
[14] = target: Ribosomal protein S6 kinase alpha-3 (Homo sapiens, UniProt P51812); assay: Inhibition of RSK2 (unknown origin) after 60 mins by TR-FRET assay
[15] = target: ALK tyrosine kinase receptor (Homo sapiens, UniProt Q9UM73); assay: Inhibition of ALK (unknown origin) after 60 mins by TR-FRET assay
Focal adhesion kinase 1 = Focal adhesion kinase 1 (Homo sapiens, UniProt Q05397); assay: Inhibition of FAK (unknown origin) after 60 mins by TR-FRET assay
[16] = target: Tyrosine-protein kinase Lck (Homo sapiens, UniProt P06239); assay: Inhibition of Lck (unknown origin) after 60 mins by TR-FRET assay

Sequence of Serine/threonine-protein kinase pim-1 (P11309 whole entry): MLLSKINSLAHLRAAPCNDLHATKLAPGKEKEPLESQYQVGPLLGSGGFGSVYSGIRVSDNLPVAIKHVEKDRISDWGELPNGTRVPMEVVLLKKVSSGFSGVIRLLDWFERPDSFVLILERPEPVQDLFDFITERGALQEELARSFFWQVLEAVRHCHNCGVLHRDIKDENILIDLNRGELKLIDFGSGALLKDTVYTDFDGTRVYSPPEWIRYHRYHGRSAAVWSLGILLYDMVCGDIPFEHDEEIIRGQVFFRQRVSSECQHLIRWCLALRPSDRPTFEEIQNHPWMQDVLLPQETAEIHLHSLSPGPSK

Row | IC50 [1] | IC50 [2] | IC50 [3] | IC50 [4] | IC50 [5] | IC50 [6] | activity at 0 min, 50 µM (CYP3A4 [7]) | IC50 [8] | IC50 (MAP kinase p38) | IC50 [9] | IC50 (Aurora kinase B) | IC50 [10] | IC50 [11] | activity at 0.5 h, 50 µM (CYP3A4 [12]) | activity at 0 min, 10 µM (CYP3A4 [13]) | IC50 [14] | IC50 [15] | IC50 (Focal adhesion kinase 1) | IC50 [16] | SMILES
1 | > 10 µM | > 10 µM | 6.79 µM | > 10 µM | 4.14 µM | > 10 µM | 87% | > 10 µM | > 10 µM | > 10 µM | > 10 µM | > 10 µM | > 10 µM | 28% | 94% |  |  |  |  | Cc1n[nH]c2cc(Nc3nc(NC4CC4)c4occc4n3)ccc12
2 | > 10 µM | > 10 µM | > 10 µM | > 10 µM | > 10 µM | > 10 µM | 92% | > 10 µM | > 10 µM | 9.13 µM | > 10 µM | > 10 µM | > 10 µM | 75% | 91% | > 10 µM | > 10 µM | 5.5 µM | 0.699 µM | CC1(C)OCC(=O)Nc2cc(Nc3nc(NCC(F)(F)F)c4occc4n3)ccc21
3 | 1.36 µM | > 10 µM | 6.44 µM | 2.11 µM | 3.21 µM | 9.36 µM |  | > 10 µM | > 10 µM | > 10 µM | > 10 µM | > 10 µM | > 10 µM |  |  | 9.81 µM | 7.63 µM | > 10 µM | 7.79 µM | FC(F)(F)CNc1nc(Nc2ccc3cn[nH]c3c2)nc2ccoc12
4 | > 10 µM | > 10 µM | > 10 µM | > 10 µM | > 10 µM | > 10 µM |  | > 10 µM |  | > 10 µM | > 10 µM | > 10 µM | > 10 µM |  |  | > 10 µM | > 10 µM | > 10 µM | 3.7 µM | FC(F)(F)CNc1nc(Nc2ccc(N3CCOCC3)c(Cl)c2)nc2ccoc12
